The values below come from publication PMC5218480 (PLoS ONE, 2017).

This assay has as its system MV-4-11 cells. In words: Gene expression microarray analysis (Affymetrix PrimeView) and GSEA. The class given is cell-based, human. Details: RFU PODN (11730768_x_at) / Fold change /veh PODN (11730768_x_at) / RFU LINC00158 (11744669_a_at) / Fold change /veh LINC00158 (11744669_a_at) / RFU DUSP10 (11751237_a_at) / Fold change /veh DUSP10 (11751237_a_at) / RFU ID3 (11757404_x_at) / Fold change /veh ID3 (11757404_x_at) / RFU PLEKHG5 (11737974_s_at) / Fold change /veh PLEKHG5 (11737974_s_at) / RFU LRRC4B (11730491_at) / Fold change /veh LRRC4B (11730491_at) / RFU GIMAP4 (11747438_a_at) / Fold change /veh GIMAP4 (11747438_a_at) / RFU KRT8 (11758183_x_at) / Fold change /veh KRT8 (11758183_x_at) / RFU CNN1 (11734310_a_at) / Fold change /veh CNN1 (11734310_a_at) / RFU VPS37D (11726825_at) / Fold change /veh VPS37D (11726825_at) / RFU C10orf10 (11716522_x_at) / Fold change /veh C10orf10 (11716522_x_at) / RFU KIR2DL2 /// KIR2DL4 /// KIR2DL5A /// KIR2DL5B /// KIR2DS1 /// KIR2DS2 /// KIR2DS3 /// KIR2DS4 /// KIR3DL3 /// KIR3DL3 /// KIR3DS1 (11738374_at) / Fold change /veh KIR2DL2 /// KIR2DL4 /// KIR2DL5A /// KIR2DL5B /// KIR2DS1 /// KIR2DS2 /// KIR2DS3 /// KIR2DS4 /// KIR3DL3 /// KIR3DL3 /// KIR3DS1 (11738374_at) / RFU C1QL1 (11718748_at) / Fold change /veh C1QL1 (11718748_at) / RFU TMPRSS4 (11747572_a_at) / Fold change /veh TMPRSS4 (11747572_a_at) / RFU HAMP (11756126_x_at) / Fold change /veh HAMP (11756126_x_at) / RFU RNFT2 (11725882_a_at) / Fold change /veh RNFT2 (11725882_a_at) / RFU NR4A2 (11747474_a_at) / Fold change /veh NR4A2 (11747474_a_at) / RFU ABCC12 (11746883_a_at) / Fold change /veh ABCC12 (11746883_a_at) / RFU TMEM136 (11760407_x_at) / Fold change /veh TMEM136 (11760407_x_at) / RFU CLDN22 /// WWC2 (11732394_at) / Fold change /veh CLDN22 /// WWC2 (11732394_at) / RFU HLA-DPB1 (11760878_x_at) / Fold change /veh HLA-DPB1 (11760878_x_at) / RFU SPINT1 (11716480_a_at) / Fold change /veh SPINT1 (11716480_a_at) / RFU GAP43 (11754022_s_at) / Fold change /veh GAP43 (11754022_s_at) / RFU A4GNT (11735810_at) / Fold change /veh A4GNT (11735810_at) / RFU PRB3 (11715151_x_at) / Fold change /veh PRB3 (11715151_x_at) / RFU TUBB4B (11761932_at) / Fold change /veh TUBB4B (11761932_at) / RFU CAPN14 (11732068_a_at) / Fold change /veh CAPN14 (11732068_a_at) / RFU TMCC2 (11721928_a_at) / Fold change /veh TMCC2 (11721928_a_at) / RFU IRGQ (11745062_a_at) / Fold change /veh IRGQ (11745062_a_at) / RFU FAM174B (11720279_a_at) / Fold change /veh FAM174B (11720279_a_at) / RFU TMPRSS4 (11748680_a_at) / Fold change /veh TMPRSS4 (11748680_a_at) / RFU FAM212B (11763350_a_at) / Fold change /veh FAM212B (11763350_a_at) / RFU PLEKHG5 (11743358_a_at) / Fold change /veh PLEKHG5 (11743358_a_at) / RFU ZSCAN30 (11745921_a_at) / Fold change /veh ZSCAN30 (11745921_a_at) / RFU CMKLR1 (11741424_a_at) / Fold change /veh CMKLR1 (11741424_a_at) / RFU LOC101060620 /// MAPK8IP1 (11723275_at) / Fold change /veh LOC101060620 /// MAPK8IP1 (11723275_at) / RFU SPTSSB (11747773_x_at) / Fold change /veh SPTSSB (11747773_x_at) / RFU PRSS12 (11739890_at) / Fold change /veh PRSS12 (11739890_at) / RFU BIN1 (11741810_x_at) / Fold change /veh BIN1 (11741810_x_at) / RFU WNT11 (11732464_a_at) / Fold change /veh WNT11 (11732464_a_at) / RFU C10orf10 (11716521_a_at) / Fold change /veh C10orf10 (11716521_a_at) / RFU C5orf56 (11738089_at) / Fold change /veh C5orf56 (11738089_at) / RFU CYB561 (11721691_x_at) / Fold change /veh CYB561 (11721691_x_at) / RFU ANKRD19P (11752326_a_at) / Fold change /veh ANKRD19P (11752326_a_at) / RFU OR2T12 /// OR2T33 /// OR2T8 (11738714_s_at) / Fold change /veh OR2T12 /// OR2T33 /// OR2T8 (11738714_s_at) / RFU VCAN (11748164_a_at) / Fold change /veh VCAN (11748164_a_at) / RFU JSRP1 (11732532_at) / Fold change /veh JSRP1 (11732532_at) / RFU KRTAP10-11 (11738290_x_at) / Fold change /veh KRTAP10-11 (11738290_x_at) / RFU MYO3A (11730013_a_at) / Fold change /veh MYO3A (11730013_a_at) / RFU EBF3 (11725865_a_at) / Fold change /veh EBF3 (11725865_a_at) / RFU CAMK2N1 (11719241_x_at) / Fold change /veh CAMK2N1 (11719241_x_at) / RFU C5orf56 (11738088_a_at) / Fold change /veh C5orf56 (11738088_a_at) / RFU OLFML3 (11715873_a_at) / Fold change /veh OLFML3 (11715873_a_at) / RFU LOC100653217 /// NTM (11731650_a_at) / Fold change /veh LOC100653217 /// NTM (11731650_a_at) / RFU MAPK11 (11762145_a_at) / Fold change /veh MAPK11 (11762145_a_at) / RFU FIZ1 (11724087_x_at) / Fold change /veh FIZ1 (11724087_x_at) / RFU OASL (11726364_x_at) / Fold change /veh OASL (11726364_x_at) / RFU SOX15 (11748057_x_at) / Fold change /veh SOX15 (11748057_x_at) / RFU CD79A (11719716_a_at) / Fold change /veh CD79A (11719716_a_at) / RFU HIST1H1D (11736915_at) / Fold change /veh HIST1H1D (11736915_at) / RFU CASKIN2 (11723855_a_at) / Fold change /veh CASKIN2 (11723855_a_at) / RFU LOC730098 (11760151_x_at) / Fold change /veh LOC730098 (11760151_x_at) / RFU OR4N2 (11742367_at) / Fold change /veh OR4N2 (11742367_at) / RFU PRRT2 (11749266_a_at) / Fold change /veh PRRT2 (11749266_a_at) / RFU SNX32 (11753110_a_at) / Fold change /veh SNX32 (11753110_a_at) / RFU CDHR5 (11726645_a_at) / Fold change /veh CDHR5 (11726645_a_at) / RFU RCAN1 (11760418_a_at) / Fold change /veh RCAN1 (11760418_a_at) / RFU FAM167A (11723789_a_at) / Fold change /veh FAM167A (11723789_a_at) / RFU FAM26E (11764081_at) / Fold change /veh FAM26E (11764081_at) / RFU ISYNA1 (11749810_s_at) / Fold change /veh ISYNA1 (11749810_s_at) / RFU ACY1 (11761880_at) / Fold change /veh ACY1 (11761880_at) / RFU 11764098_at / Fold change /veh 11764098_at / RFU SAMD14 (11745864_x_at) / Fold change /veh SAMD14 (11745864_x_at) / RFU NPB (11741838_a_at) / Fold change /veh NPB (11741838_a_at) / RFU TMPRSS6 (11731388_a_at) / Fold change /veh TMPRSS6 (11731388_a_at) / RFU KRTAP10-2 (11738614_at) / Fold change /veh KRTAP10-2 (11738614_at) / RFU ARHGAP8 /// PRR5-ARHGAP8 (11727945_x_at) / Fold change /veh ARHGAP8 /// PRR5-ARHGAP8 (11727945_x_at) / RFU KRTAP5-7 /// NADSYN1 (11734609_at) / Fold change /veh KRTAP5-7 /// NADSYN1 (11734609_at) / RFU RASL12 (11751679_a_at) / Fold change /veh RASL12 (11751679_a_at) / RFU CDKN2B (11736163_a_at) / Fold change /veh CDKN2B (11736163_a_at) / RFU PRF1 (11729649_at) / Fold change /veh PRF1 (11729649_at) / RFU, ZNF638 /// ZNF638-IT1 / Fold change vs veh, ZNF638 /// ZNF638-IT1 / RFU, PANK3 / Fold change vs veh, PANK3 / RFU, SH3YL1 / Fold change vs veh, SH3YL1 / RFU, ZEB2 / Fold change vs veh, ZEB2 / RFU, NRIP1 / Fold change vs veh, NRIP1 / RFU, PTTG1IP / Fold change vs veh, PTTG1IP / RFU, CAPN2 / Fold change vs veh, CAPN2 / RFU, MED14 / Fold change vs veh, MED14 / RFU, SNORA58 / Fold change vs veh, SNORA58 / RFU, C1orf63 / Fold change vs veh, C1orf63 / RFU, LRRFIP1 / Fold change vs veh, LRRFIP1 / RFU, NDUFAF7 / Fold change vs veh, NDUFAF7 / RFU, SLC12A2 / Fold change vs veh, SLC12A2 / RFU, IBTK / Fold change vs veh, IBTK / RFU, ESF1 / Fold change vs veh, ESF1 / Fold change vs veh, TMEM50B / RFU, TAOK1 / Fold change vs veh, TAOK1 / RFU, ACBD3 / Fold change vs veh, ACBD3 / RFU, TMA16 / Fold change vs veh, TMA16 / RFU, RWDD3 / Fold change vs veh, RWDD3 / RFU, BCAT1 / Fold change vs veh, BCAT1 / RFU, EDEM3 / Fold change vs veh, EDEM3 / RFU, TMEM33 / Fold change vs veh, TMEM33 / RFU, WDR75 / Fold change vs veh, WDR75 / RFU, AHCTF1 / Fold change vs veh, AHCTF1 / RFU, TFRC / Fold change vs veh, TFRC / RFU, ZDHHC17 / Fold change vs veh, ZDHHC17 / RFU, NOM1 / Fold change vs veh, NOM1 / RFU, ARL8B / Fold change vs veh, ARL8B / RFU, ZBTB11 / Fold change vs veh, ZBTB11 / RFU, TAMM41 / Fold change vs veh, TAMM41 / RFU, KIAA1704 /// LOC100996395 / Fold change vs veh, KIAA1704 /// LOC100996395 / RFU, ING1 / Fold change vs veh, ING1 / RFU, TRMT61B / Fold change vs veh, TRMT61B / RFU, FUBP3 / Fold change vs veh, FUBP3 / RFU, TP53 / Fold change vs veh, TP53 / RFU, TNKS2 / Fold change vs veh, TNKS2 / RFU, ZFP14 / Fold change vs veh, ZFP14 / RFU, ACTR2 / Fold change vs veh, ACTR2 / RFU, PPP3R1 / Fold change vs veh, PPP3R1 / RFU, PIK3R1 / Fold change vs veh, PIK3R1 / RFU, HNRNPA1 / Fold change vs veh, HNRNPA1 / RFU, RNF170 / Fold change vs veh, RNF170 / RFU, ZNF28 / Fold change vs veh, ZNF28 / RFU, RNGTT / Fold change vs veh, RNGTT / RFU, OGT / Fold change vs veh, OGT / RFU, BRD1 / Fold change vs veh, BRD1 / RFU, MARS / Fold change vs veh, MARS / RFU, ZNF655 / Fold change vs veh, ZNF655 / RFU, FAHD1 / Fold change vs veh, FAHD1 / RFU, BDP1 / Fold change vs veh, BDP1 / RFU, LRRCC1 / Fold change vs veh, LRRCC1 / RFU, ARID1A / Fold change vs veh, ARID1A / RFU, ZNF146 / Fold change vs veh, ZNF146 / RFU, ZNF330 / Fold change vs veh, ZNF330 / RFU, GPN3 / Fold change vs veh, GPN3 / RFU, C9orf123 / Fold change vs veh, C9orf123 / RFU, N4BP2L2 / Fold change vs veh, N4BP2L2 / RFU, ARFIP1 / Fold change vs veh, ARFIP1 / RFU, FAM179B / Fold change vs veh, FAM179B / RFU, BCL10 / Fold change vs veh, BCL10 / RFU, UHRF1BP1L / Fold change vs veh, UHRF1BP1L / RFU, BET1 / Fold change vs veh, BET1 / RFU, CNOT2 / Fold change vs veh, CNOT2 / RFU, ZNF268 / Fold change vs veh, ZNF268 / Fold change vs veh, ZNF507 / RFU, DGCR2 / Fold change vs veh, DGCR2 / RFU, WDSUB1 / Fold change vs veh, WDSUB1 / Fold change vs veh, HSP90B1 /// MIR3652 / RFU, ADSS / Fold change vs veh, ADSS / RFU, GK / Fold change vs veh, GK / RFU, ZNF148 / Fold change vs veh, ZNF148 / RFU, TAF9 / Fold change vs veh, TAF9 / RFU, SLC1A5 / Fold change vs veh, SLC1A5 / RFU, SLMO2 / Fold change vs veh, SLMO2 / RFU, ABCC4 / Fold change vs veh, ABCC4 / RFU, LOC101060439 /// RAP1B / Fold change vs veh, LOC101060439 /// RAP1B / RFU, RFX7 / Fold change vs veh, RFX7 / RFU, GTPBP10 / Fold change vs veh, GTPBP10 / RFU, CNEP1R1 / Fold change vs veh, CNEP1R1 / RFU, BIVM-ERCC5 /// ERCC5 / Fold change vs veh, BIVM-ERCC5 /// ERCC5 / RFU, ILF3 / Fold change vs veh, ILF3 / RFU 11762660_at / Fold change /veh 11762660_at / RFU VCAN (11757783_s_at) / Fold change /veh VCAN (11757783_s_at) / RFU DDX43 (11728927_at) / Fold change /veh DDX43 (11728927_at) / RFU KRT8 (11758188_x_at) / Fold change /veh KRT8 (11758188_x_at) / RFU NKD1 (11759106_at) / Fold change /veh NKD1 (11759106_at) / RFU SRD5A1 (11742802_a_at) / Fold change /veh SRD5A1 (11742802_a_at) / RFU TPSAB1 /// TPSB2 (11721975_s_at) / Fold change /veh TPSAB1 /// TPSB2 (11721975_s_at) / RFU GSTM3 (11746129_a_at) / Fold change /veh GSTM3 (11746129_a_at) / RFU IL23R (11737362_x_at) / Fold change /veh IL23R (11737362_x_at) / RFU TMEM51 (11727254_a_at) / Fold change /veh TMEM51 (11727254_a_at) / RFU PIWIL2 (11732686_x_at) / Fold change /veh PIWIL2 (11732686_x_at) / RFU ORM1 (11744905_x_at) / Fold change /veh ORM1 (11744905_x_at) / RFU CCDC152 (11743942_at) / Fold change /veh CCDC152 (11743942_at) / RFU ECM1 (11717891_a_at) / Fold change /veh ECM1 (11717891_a_at) / RFU IL23R (11748794_a_at) / Fold change /veh IL23R (11748794_a_at) / RFU TNFAIP8L3 (11732012_x_at) / Fold change /veh TNFAIP8L3 (11732012_x_at) / RFU MBOAT4 (11741988_at) / Fold change /veh MBOAT4 (11741988_at) / RFU 11764193_at / Fold change /veh 11764193_at / RFU TMEM53 (11763286_at) / Fold change /veh TMEM53 (11763286_at) / RFU MAGEB2 (11727129_at) / Fold change /veh MAGEB2 (11727129_at) / RFU TMEM200A (11744735_a_at) / Fold change /veh TMEM200A (11744735_a_at) / RFU CCDC152 (11751479_a_at) / Fold change /veh CCDC152 (11751479_a_at) / RFU FAM211A (11726209_a_at) / Fold change /veh FAM211A (11726209_a_at) / RFU RGS16 (11746705_a_at) / Fold change /veh RGS16 (11746705_a_at) / RFU VCAN (11755009_s_at) / Fold change /veh VCAN (11755009_s_at) / RFU RHOB (11743442_s_at) / Fold change /veh RHOB (11743442_s_at) / RFU RGS16 (11720943_a_at) / Fold change /veh RGS16 (11720943_a_at) / RFU RGS16 (11720944_at) / Fold change /veh RGS16 (11720944_at) / RFU, VPS4B / Fold change vs veh, VPS4B / RFU, CREB1 / Fold change vs veh, CREB1 / RFU, DNAJC13 / Fold change vs veh, DNAJC13 / RFU, GNAQ / Fold change vs veh, GNAQ / RFU, CDK5R1 / Fold change vs veh, CDK5R1 / RFU, ZRANB3 / Fold change vs veh, ZRANB3 / RFU, CUL4A / Fold change vs veh, CUL4A / RFU, CCNY / Fold change vs veh, CCNY / RFU, UFL1 / Fold change vs veh, UFL1 / RFU, COG3 / Fold change vs veh, COG3 / RFU, DIAPH2 / Fold change vs veh, DIAPH2 / RFU, SKA2 / Fold change vs veh, SKA2 / RFU, AFF3 / Fold change vs veh, AFF3 / RFU, LMF1 / Fold change vs veh, LMF1 / RFU, IPO11 / Fold change vs veh, IPO11 / RFU, DFFB / Fold change vs veh, DFFB / RFU, FOXP1 / Fold change vs veh, FOXP1 / RFU, CARD8 / Fold change vs veh, CARD8 / RFU, STRN3 / Fold change vs veh, STRN3 / RFU, ADK / Fold change vs veh, ADK / RFU, RASSF2 / Fold change vs veh, RASSF2 / RFU, WIPF1 / Fold change vs veh, WIPF1 / RFU, LARP1B / Fold change vs veh, LARP1B / RFU, RASA1 / Fold change vs veh, RASA1 / RFU, RB1 / Fold change vs veh, RB1 / RFU, PPFIA1 / Fold change vs veh, PPFIA1 / RFU, MAT2A / Fold change vs veh, MAT2A / RFU, CCT5 / Fold change vs veh, CCT5 / RFU, WDR92 / Fold change vs veh, WDR92 / RFU, CUX1 / Fold change vs veh, CUX1 / RFU, TTC7A / Fold change vs veh, TTC7A / RFU, TMEM135 / Fold change vs veh, TMEM135 / RFU, DEPTOR / Fold change vs veh, DEPTOR / RFU, CPM / Fold change vs veh, CPM / RFU, DNAJB6 / Fold change vs veh, DNAJB6 / RFU, CACNA2D3 / Fold change vs veh, CACNA2D3 / RFU, DTX4 / Fold change vs veh, DTX4 / RFU, TFCP2 / Fold change vs veh, TFCP2 / RFU, GMCL1 /// GMCL1P1 / Fold change vs veh, GMCL1 /// GMCL1P1 / RFU, AEBP2 / Fold change vs veh, AEBP2 / RFU, SNHG1 /// SNORD22 /// SNORD25 /// SNORD26 /// SNORD27 /// SNORD28 /// SNORD29 /// SNORD31 / Fold change vs veh, SNHG1 /// SNORD22 /// SNORD25 /// SNORD26 /// SNORD27 /// SNORD28 /// SNORD29 /// SNORD31 / Fold change (Aza/veh), C12orf56 (ProbeSet 11735607_a_at) / Fold change (ACY-1035/veh), C12orf56 (ProbeSet 11735607_a_at) / Fold change (Aza/veh), FGFR1OP (ProbeSet 11751329_s_at) / Fold change (ACY-1035/veh), FGFR1OP (ProbeSet 11751329_s_at) / Fold change (Aza/veh), VPS36 (ProbeSet 11739960_a_at) / Fold change (ACY-1035/veh), VPS36 (ProbeSet 11739960_a_at) / RFU SYPL1 (11715823_x_at) / Fold change /veh SYPL1 (11715823_x_at) / RFU IGFBP7 (11715501_s_at) / Fold change /veh IGFBP7 (11715501_s_at) / RFU REEP3 (11722064_at) / Fold change /veh REEP3 (11722064_at) / RFU IGLL1 (11728026_x_at) / Fold change /veh IGLL1 (11728026_x_at): dose or concentration left out as unconfirmed. The following applies: MV-4-11 cells, 48 hours.

With `Nc1ncn([C@@H]2O[C@H](CO)[C@@H](O)[C@H]2O)c(=O)n1` [azacitidine], the “RFU RNFT2 (11725882_a_at)” value is 15.64 RFU.
